# Laboratory results: patent publication US11213536B2, “Acylated compounds for the treatment of ocular pathologies” (CONSEJO SUPERIOR DE INVESTIGACIONES CIENTÍFICAS, priority 2016, dated 2022)
# Entries after “also recorded” stand apart in the source; their conditions may differ.
# Assays:
# RAW 264.7 macrophages = test: Mitigation of LPS damage: RAW 264.7 macrophage viability (MTT); type: cell-based; conditions: LPS 100 ng/ml, RES 10 μM, MTT 24 h
# Description: RAW 264.7 macrophages were cultured in P75 with high-glucose DMEm supplemented with penicillin/streptomycin and 10% inactivated fetal bovine serum.
# The cell viability assays with RAW macrophages were prepared in 96-well plates by seeding 25,000 cells/well in a volume of 100 μl and incubating the cells for 4 h before the addition of the compounds. The compounds to be tested were dissolved in DMSO and added in three different concentrations (1, 10 and 100 μM) in order to determine their toxicity. The final percentage of DMSO in each well was adjusted to 1%. The cell viability was evaluated 24 h after the addition of the compounds by means of the MTT assay according to the manufacturer's method. Mean values and standard deviations were calculated from at least 8 different measurements from several independent experiments.
# Testing of mitigation of damage caused by the addition of LPS. The RAW 264.7 macrophages were cultured according to the procedure described above. […] The cell viability was evaluated 24 h after the addition of the compounds by means of the MTT assay according to the manufacturer's method. Mean values and standard deviations were calculated from at least 8 different measurements from several independent experiments.
# [1] = tested on: SH-SY5Y neuroblastoma cell line; test: Neuroprotection assay: SH-SY5Y viability (MTT) after H2O2 damage; type: cell-based; conditions: H2O2 100 μM, RES 10 μM, MTT 24 h
# Description: The SH-SY5Y neuroblastoma cell line was cultured in petri dishes pre-treated with collagen (100 μg/ml) with F12 medium supplemented with penicillin/streptomycin and 10% inactivated fetal bovine serum.
# Cell viability assays with neurons were prepared in 96-well plates pre-treated with collagen by seeding 20,000 cells/well in a volume of 100 μl and incubating the cells for 24 h before the addition of the compounds. The compounds to be tested were dissolved in DMSO and added in three different concentrations (1, 10 and 100 μM) in order to determine their toxicity. The final percentage of DMSO in each well was adjusted to 1%. The cell viability was evaluated 24 h after the addition of the compounds by means of the MTT assay according to the manufacturer's method. Mean values and standard deviations were calculated from at least 8 different measurements from several independent experiments.
# Neuroprotection assays. […] The cell viability was evaluated 24 h after the addition of the compounds by means of the MTT assay according to the manufacturer's method. Mean values and standard deviations were calculated from at least 8 different measurements from several independent experiments. Neuronal recovery was calculated by normalizing the results of the neuronal viability experiments after the addition of our compounds and H2O2 to the positive control of each experiment (neurons+H2O2).
# rd10 mouse = test: rd10 mice retinal degeneration model, subretinal injection; type: in vivo; conditions: 5 mM subretinal
# Excerpt: The rd10 mouse is a model of retinitis pigmentosa due to a mutation in the Pde6b gene that results in the degeneration of the photoreceptors that begins on postnatal day 15-16 (P15-16) and is completed within one month (P30). In this model, the degeneration begins in the rods and then continues with cones and finally the retinal pigment epithelium (RPE). The degeneration in this model occurs as a consequence of the loss of the function of Pde6b, which ultimately leads to a continuous entry of Ca^++ in the […] with a significant production of reactive oxygen species (ROS), infiltration of macrophages, and activation of pro-apoptotic proteins. At the histological level, a loss of nuclei is observed in the outer nuclear layer of the retina (the layer in which photoreceptor nuclei are located), as well as the loss of the specific markers of rods (rhodopsin) and cones (opsin). The electroretinogram (ERG), which measures the electrical response of the retina to visual stimuli, is markedly affected in rd10 mice, with progressive loss of the amplitude of the a- and b-waves of the ERG. […] To evaluate the protective effect of our compounds on the retina, we first used the rd10 model. Rd10 homozygous mice were injected in the subretinal space at P13 (two to three days before the onset of degeneration) with 1 μl of vehicle (5% DMSO in PBS) or resveratrol RES (5 mM), as well as compound 2 (5 mM). Then, 15 days after having been injected, fundus, ERG, and histological changes were evaluated in the untreated mice, those treated with the vehicle, and those treated with RES and compound 2. […] The ERG in the treated mice was also evaluated 15 days after the injections. The amplitude of the a- and b-waves in the ERGs were quantified, and the statistical analysis was performed using two-way ANOVA and post hoc DMS. A value of p<0.05 was considered significant. […] Finally, the immunofluorescence study was performed in order to observe the presence of markers of rods (rhodopsin) and cones (opsin) (FIG. 10). The number of photoreceptor nuclei present in the outer nuclear layer (ONL), as well as the immunostaining of rhodopsin, was much greater in rd10 mice treated with compound 2 than in those treated with RES and in the controls.
SMILES,recovery of cell viability (RAW 264.7 macrophages),recovery of cell viability [1],amplitude of the a- and b-waves in ERG (rd10 mouse; 15 days),thickness of the outer nuclear layer (ONL) (rd10 mouse; 15 days),pigment accumulation in the fundus (rd10 mouse; 15 days after injection),"b-wave amplitude in dark-adapted ERG (rd10 mouse; 15 days, flash intensities 0.2, 1, 3 and 10 cd s/m^2)","labeling of rhodopsin and opsin (rd10 mouse; 15 days, immunofluorescence)","number of photoreceptor nuclei in the outer nuclear layer (ONL) and immunostaining of rhodopsin (rd10 mouse; 15 days, immunofluorescence)"
"Oc1ccc(C=Cc2cc(O)cc(O)c2)cc1 [RES, resveratrol, reference compound]",up to 82%,up to 50%,–,–,–,–,–,–
"CCCCCCCC(=O)OCC1OC(Oc2cc(O)cc(/C=C/c3ccc(O)cc3)c2)C(O)C(O)C1O [Compound 2, trans-resveratrol-3-O-(6′-O-octanoyl)-β-D-glucopyranoside]",–,–,preserved in the group treated with compound 2 in a greater proportion,greater than in the group treated with RES,absence of pigment; also recorded: lower amount of pigment accumulation,significantly increased; also recorded: significant increase,more intense,much greater
